Test results as given in patent publication US10155021B2, “Antimicrobial 4-oxoquinolizines” (Emergent Product Development Gaithersburg Inc., priority 2011, dated 2018).
≈ marks a conversion by molar mass, not a printed value. Read-outs that look alike come from different tables or passages of the source.

What was measured:
[1] = test system: Acinetobacter sp. (H064200250); assay: MIC without and with sub-inhibitory polymyxin B (Example 4); format: cell-based; conditions: Acinetobacter
A. baumannii A 401 = assay: MIC determination for Acinetobacter strains (Example 3); format: cell-based; conditions: A401, LEV R, CIP R, AMK R, TET R
A. baumannii ATCC 19606 = assay: MIC without and with sub-inhibitory polymyxin B (Example 4); format: cell-based, Acinetobacter baumannii; conditions: Acinetobacter baumannii, ATCC19606, A. baumannii ATCC 19606, without polymyxin B, read-out: MIC without PB
A. baumannii A489 = assay: as above; format: cell-based, Acinetobacter baumannii; conditions: Acinetobacter baumannii, A489, A. baumannii A489, without polymyxin B, read-out: MIC without PB
A. baumannii A329 [2] = assay: Preliminary MBC without and with sub-inhibitory polymyxin B (Example 4); format: cell-based, Acinetobacter baumannii; conditions: Acinetobacter baumannii, A329, A. baumannii A329, without polymyxin B, read-out: MBC without PB
A. baumannii A390 = assay: as above; format: cell-based, Acinetobacter baumannii; conditions: Acinetobacter baumannii, A390, A. baumannii A390, without polymyxin B, preliminary MBC, read-out: MBC without PB
A. baumannii J2 [3] = assay: MIC without and with sub-inhibitory polymyxin B (Example 4); format: cell-based, Acinetobacter baumannii; conditions: Acinetobacter baumannii, J2, A. baumannii J2, without polymyxin B, read-out: MIC without PB
A. baumannii A472 [4] = assay: Preliminary MBC without and with sub-inhibitory polymyxin B (Example 4); format: cell-based, Acinetobacter baumannii; conditions: Acinetobacter baumannii, A472, A. baumannii A472, without polymyxin B, read-out: MBC without PB
P. aeruginosa 143-3-03 = assay: MIC, panel of quinolone-resistant strains (CLSI); format: cell-based; conditions: Pseudomonas aeruginosa, 143303; CIP I, POL R
P. aeruginosa 1388-3-02 = assay: MIC, panel of quinolone-resistant strains (CLSI); format: cell-based; conditions: Pseudomonas aeruginosa, 1388302; CIP R, POL R
[5] = test system: resistant strains of A. baumannii and one strain of Acinetobacter sp.; assay: MIC without and with sub-inhibitory polymyxin B, whole panel / MIC ranges (Example 4; also strains not listed separately); format: cell-based; conditions: Acinetobacter baumannii
A. baumannii A473 [6] = assay: Preliminary MBC without and with sub-inhibitory polymyxin B (Example 4); format: cell-based, Acinetobacter baumannii; conditions: Acinetobacter baumannii, A473, A. baumannii A473, without polymyxin B, read-out: MBC without PB
A. baumannii A401 [7] = assay: as above; format: cell-based, Acinetobacter baumannii; conditions: Acinetobacter baumannii, A401, A baumannii A 401, without polymyxin B, preliminary MBC, read-out: MBC without PB
Klebsiella ssp KPC-3 = assay: MIC, panel of quinolone-resistant strains (CLSI); format: cell-based, Klebsiella spp; conditions: KPC3, CIP R, ESBL
[8] = test system: Acinetobacter sp. (H064200250); assay: Preliminary MBC without and with sub-inhibitory polymyxin B (Example 4); format: cell-based; conditions: Acinetobacter, without polymyxin B, preliminary MBC, read-out: MBC without PB
Procedure, shortened: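 Bactericidal endpoint scored visually on plates incubated at 37° C (18-20 hours): the lowest concentration where growth fell about 90% versus the positive control, generally leaving one colony or none.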

Pseudomonas ssp PER-1 = assay: MIC, panel of quinolone-resistant strains (CLSI); format: cell-based, Pseudomonas spp; conditions: PER1, CIP R, ESBL
A. baumannii J2 [9] = assay: Preliminary MBC without and with sub-inhibitory polymyxin B (Example 4); format: cell-based, Acinetobacter baumannii; conditions: Acinetobacter baumannii, J2, A. baumannii J2, without polymyxin B, preliminary MBC, read-out: MBC without PB
E. coli CTX-M-15 = assay: MIC, panel of quinolone-resistant strains (CLSI); format: cell-based; conditions: Escherichia coli, CTXM15; CIP R, ESBL
E. coli 2906 = assay: MIC, panel of quinolone-resistant strains (CLSI); format: cell-based; conditions: Escherichia coli, CIP R
A. baumannii A401 [10] = assay: MIC without and with sub-inhibitory polymyxin B (Example 4); format: cell-based, Acinetobacter baumannii; conditions: Acinetobacter baumannii, A401, A baumannii A 401, without polymyxin B, read-out: MIC without PB
A. baumannii A472 [11] = assay: as above; format: cell-based, Acinetobacter baumannii; conditions: Acinetobacter baumannii, A472, A. baumannii A472, without polymyxin B, read-out: MIC without PB
A. baumannii A473 [12] = assay: as above; format: cell-based, Acinetobacter baumannii; conditions: Acinetobacter baumannii
[13] = test system: Acinetobacter spp. H064200250; assay: MIC determination for Acinetobacter strains (Example 3); format: cell-based, Acinetobacter sp.; conditions: LEV R, CIP R, MRP R, IMP I
A. baumannii A329 [14] = assay: MIC without and with sub-inhibitory polymyxin B (Example 4); format: cell-based, Acinetobacter baumannii; conditions: Acinetobacter baumannii
[15] = Acinetobacter spp. H064200250 (OXA51), without polymyxin B, 2nd experiment, visual reading, read-out: MIC without PB
[16] = Acinetobacter spp. H064200250, without polymyxin B, 1st experiment, read-out: MIC without PB
[17] = Acinetobacter spp. H064200250 (OXA51), 2nd experiment
[18] = Acinetobacter spp. H064200250, 1st experiment
[19] = A473, A. baumannii A473, without polymyxin B, 2nd experiment, visual reading, read-out: MIC without PB
[20] = A329, A. baumannii A329, without polymyxin B, 1st experiment, read-out: MIC without PB

Compound: Cc1c(-c2cc(F)c(N)cc2F)ccn2c(=O)c(C(=O)O)cc(C3CC3)c12 [Compound 2, 8-(3,6-difluoro-4-amino-phenyl)-1-cyclopropyl-9-methyl-4-oxo-quinolizine-3-carboxylic acid]
- MIC [1, 15]: 4 µg/mL (≈ 10.8 µM)
- MIC [1, 16]: 4 µg/mL (≈ 10.8 µM)
- MIC ([1]; read-out: MIC +[…] PB, read with alamar blue, Acinetobacter spp. H064200250 (OXA51), +[…] polymyxin B, 2nd experiment, MIC read with alamar blue): 0.06 µg/mL (≈ 0.162 µM)
- MIC (A. baumannii A 401): 4 µg/mL (≈ 10.8 µM)
- MIC (A. baumannii ATCC 19606; 2nd experiment, visual reading): 0.125 µg/mL (≈ 0.338 µM)
- MIC (A. baumannii A489; 1st experiment): 2 µg/mL (≈ 5.4 µM)
- MIC (A. baumannii A489; 2nd experiment, visual reading): 4 µg/mL (≈ 10.8 µM)
- MBC (A. baumannii A329 [2]; 1st experiment): 8 µg/mL (≈ 21.6 µM)
- MBC (A. baumannii A329 [2]; 2nd experiment): 8 µg/mL (≈ 21.6 µM)
- MBC (A. baumannii A390; 2nd experiment): 16 µg/mL (≈ 43.2 µM)
- MBC (A. baumannii A390; 1st experiment): 8 µg/mL (≈ 21.6 µM)
- MIC (A. baumannii J2 [3]; 1st experiment): 4 µg/mL (≈ 10.8 µM)
- MIC (A. baumannii J2 [3]; 2nd experiment, visual reading): 4 µg/mL (≈ 10.8 µM)
- MBC (A. baumannii A472 [4]; 1st experiment): 4 µg/mL (≈ 10.8 µM)
- MBC (A. baumannii A472 [4]; 2nd experiment): 8 µg/mL (≈ 21.6 µM)
- MIC (P. aeruginosa 143-3-03): 2 µg/mL (≈ 5.4 µM)
- MIC (P. aeruginosa 1388-3-02): 8 µg/mL (≈ 21.6 µM)
- MIC ([5]; read-out: MIC range without PB 01-10-2008 n = 8, without polymyxin B, 1st experiment, 8 strains): 0.5 to 16 µg/mL (≈ 1.35 to 43.2 µM)
- MIC ([5]; without polymyxin B, 2nd experiment, 11 strains, read-out: MIC range without PB 14-10-2008 n = 11): 1 to 16 µg/mL (≈ 2.7 to 43.2 µM)
- MBC (A. baumannii A473 [6]; 1st experiment): 2 µg/mL (≈ 5.4 µM)
- MBC (A. baumannii A473 [6]; 2nd experiment): 4 µg/mL (≈ 10.8 µM)
- MBC (A. baumannii A401 [7]; 2nd experiment): 4 µg/mL (≈ 10.8 µM)
- MBC (A. baumannii A401 [7]; 1st experiment): 2 µg/mL (≈ 5.4 µM)
- MIC (Klebsiella ssp KPC-3): 8 µg/mL (≈ 21.6 µM)
- MBC [8, 17]: 8 µg/mL (≈ 21.6 µM)
- MBC [8, 18]: 4 µg/mL (≈ 10.8 µM)
- MIC (Pseudomonas ssp PER-1): 16 µg/mL (≈ 43.2 µM)
- MBC (A. baumannii J2 [9]; 2nd experiment): 8 µg/mL (≈ 21.6 µM)
- MBC (A. baumannii J2 [9]; 1st experiment): 4 µg/mL (≈ 10.8 µM)
- MIC (E. coli CTX-M-15): > 32 µg/mL
- MIC (E. coli 2906): 32 µg/mL (≈ 86.4 µM)
- MIC (A. baumannii A401 [10]; 1st experiment): 4 µg/mL (≈ 10.8 µM)
- MIC (A. baumannii A401 [10]; 2nd experiment, visual reading): 4 µg/mL (≈ 10.8 µM)
- MIC (A. baumannii A472 [11]; 1st experiment): 4 µg/mL (≈ 10.8 µM)
- MIC (A. baumannii A472 [11]; 2nd experiment, visual reading): 4 µg/mL (≈ 10.8 µM)
- MIC (A. baumannii A473 [12]; A473, A. baumannii A473, without polymyxin B, 1st experiment, read-out: MIC without PB): 8 µg/mL (≈ 21.6 µM)
- MIC (A. baumannii A473 [12]; [19]): 4 µg/mL (≈ 10.8 µM)
- MIC (A. baumannii A473 [12]; A473, read-out: MIC +0.06 μg/ml PB, read with alamar blue, A. baumannii A473, +0.06 μg/ml polymyxin B, 2nd experiment, MIC read with alamar blue): 0.125 µg/mL
- MIC [13]: 4 µg/mL (≈ 10.8 µM)
- MIC (A. baumannii A329 [14]; [20]): 8 µg/mL (≈ 21.6 µM)
- MIC (A. baumannii A329 [14]; A329, A. baumannii A329, without polymyxin B, 2nd experiment, visual reading, read-out: MIC without PB): 8 µg/mL (≈ 21.6 µM)
- MIC (A. baumannii A329 [14]; A329, read-out: MIC +0.06 μg/ml PB, read with alamar blue, A. baumannii A329, +0.06 μg/ml polymyxin B, 2nd experiment, MIC read with alamar blue): 1 µg/mL

Compound: Cc1c(-c2ccc(N)cc2)ccn2c(=O)c(C(=O)O)cc(C3CC3)c12 [Compound 8, 8-(4-amino-phenyl)-1-cyclopropyl-9-methyl-4-oxo-quinolizine-3-carboxylic acid]
- MIC ([1]; Acinetobacter spp. H064200250 (OXA51), without polymyxin B, 2nd experiment, MIC read with alamar blue, read-out: MIC without PB, read with alamar blue): 8 µg/mL (≈ 23.9 µM)
- MIC [1, 15]: 4 µg/mL (≈ 12 µM)
- MIC [1, 16]: 2 µg/mL (≈ 5.98 µM)
- MIC (A. baumannii A 401): 32 µg/mL (≈ 95.7 µM)
- MIC (A. baumannii ATCC 19606; 1st experiment): 1 µg/mL (≈ 2.99 µM)
- MBC (A. baumannii A329 [2]; 2nd experiment): 8 µg/mL (≈ 23.9 µM)
- MBC (A. baumannii A390; 1st experiment): 8 µg/mL (≈ 23.9 µM)
- MIC (A. baumannii J2 [3]; 2nd experiment, visual reading): 4 µg/mL (≈ 12 µM)
- MBC (A. baumannii A472 [4]; 2nd experiment): 4 µg/mL (≈ 12 µM)
- MIC (P. aeruginosa 143-3-03): 2 µg/mL (≈ 5.98 µM)
- MIC (P. aeruginosa 1388-3-02): 8 µg/mL (≈ 23.9 µM)
- MIC ([5]; A. baumannii A14, without polymyxin B, 1st experiment, read-out: MIC without PB): 32 µg/mL (≈ 95.7 µM)
- MIC ([5]; NCTC13301, A. baumannii NCTC 13301, without polymyxin B, 1st experiment, read-out: MIC without PB): 32 µg/mL (≈ 95.7 µM)
- MIC ([5]; NCTC13301, A. baumannii NCTC 13301, without polymyxin B, 2nd experiment, visual reading, read-out: MIC without PB): 16 µg/mL (≈ 47.9 µM)
- MBC (A. baumannii A473 [6]; 2nd experiment): 4 µg/mL (≈ 12 µM)
- MBC (A. baumannii A401 [7]; 2nd experiment): 8 µg/mL (≈ 23.9 µM)
- MBC (A. baumannii A401 [7]; 1st experiment): 8 µg/mL (≈ 23.9 µM)
- MIC (Klebsiella ssp KPC-3): 16 µg/mL (≈ 47.9 µM)
- MBC [8, 17]: 4 µg/mL (≈ 12 µM)
- MBC [8, 18]: 4 µg/mL (≈ 12 µM)
- MIC (Pseudomonas ssp PER-1): 16 µg/mL (≈ 47.9 µM)
- MBC (A. baumannii J2 [9]; 2nd experiment): 4 µg/mL (≈ 12 µM)
- MBC (A. baumannii J2 [9]; 1st experiment): 8 µg/mL (≈ 23.9 µM)
- MIC (E. coli CTX-M-15): > 32 µg/mL
- MIC (E. coli 2906): > 32 µg/mL
- MIC (A. baumannii A401 [10]; 1st experiment): 32 µg/mL (≈ 95.7 µM)
- MIC (A. baumannii A472 [11]; 1st experiment): 4 µg/mL (≈ 12 µM)
- MIC (A. baumannii A472 [11]; 2nd experiment, visual reading): 4 µg/mL (≈ 12 µM)
- MIC (A. baumannii A473 [12]; [19]): 4 µg/mL (≈ 12 µM)
- MIC [13]: 2 µg/mL (≈ 5.98 µM)
- MIC (A. baumannii A329 [14]; [20]): 16 µg/mL (≈ 47.9 µM)
